Assay results taken from patent US20230292755A1, “USE OF A GLYCINE BETAINE DERIVATIVE AS A PEDICULICIDAL AGENT” (priority 2020, published 2023).

System: lice (Pediculus humanus capitis)
Assay: Efficacy test: aqueous solutions sprayed into boxes of lice, percentage of mortality evaluated (ECHA guidance)
Format: in vivo
Details: sprayed aqueous solution at 3% by weight of dry matter; for Mortality rate (%): mean of 4 boxes of 25 lice
Protocol: The surfactant compositions prepared as described in examples 1 and 2 above were tested following the recommendations of the ECHA relating to the evaluation of the efficacy of biocidal products (Guidance on the Biocidal Products Regulation Volume II Efficacy—Assessment and Evaluation (Parts B+C), Version 3.0 April 2018).
These compositions were thus each sprayed, in the form of aqueous solutions at 3% by weight of dry matter, into 4 boxes each including 25 lice (Pediculus humanus capitis), then the percentage of mortality was evaluated after 5, 10 and 15 min. The mean of the results obtained in the 4 boxes was calculated.
The test presented in example 3 was reproduced using one and the same concentration of different cationic surfactants instead of the glycine betaine derivatives according to the invention.

Compound	Mortality rate (%) (after 5 min)	Mortality rate (%) (after 10 min)	Mortality rate (%) (after 15 min)	time required to eliminate 100% of the lice [min]
CCCCCCCCCCCC[N+](C)(C)C.[Cl-] [Dodecyltrimethylammonium chloride]	49	78	91	30
Benzalkonium chloride	70	80	82	60
CCCCCCCCCCCCCCCC[N+](C)(C)C.[Cl-] [Cetrimonium chloride]	79	94	100	–
